Data on four molecules can be found in patent US5939578A, “Vasomolol: an ultra short-acting and vasodilatory vanilloid type β - adrenoceptor antagonist” (Lin; Tong-Ho, priority 1996, dated 1999).

A value given as a limit tells only on which side of the number the result lay.

Series [1] has as its system right atria and left atrial strips. Description: Intrinsic sympathomimetic activity in isolated right atria and left atrial strips. On the set-up: species or system reserpinized guinea-pigs. Conditions: in words. The protocol:
Animals were pretreated with reserpine (10 mg/kg, i.p.) 24 hr prior to the experiment described in Naunyn-Schmiedeberg's Arch. […] All preparations including isolated right atria and left atria strips were studied.
All measurements are expressed as mean percentages of the control frequency or force in the same preparation.

Series [2] deals with β-adrenoceptor, ventricular membranes. Nature of the series: [3H]-DHA saturation binding to ventricular membranes (Scatchard analysis). The arrangement: species or system pig. The protocol:
(§1) Pig's heart were obtained from a local slaughterhouse immediately after the animals had been killed and transported to our laboratory in ice-cold buffer (250 mM sucrose/50 mM Tris [hydroxymethyl] aminomethane HCl/1 mM magnesium chloride, pH 7.4). Various heart tissues were removed and prepared as detailed as described in Cardiovasc. Res. 25, 764, 1991 (by Bjornerheim, R. et al.). In the test for receptor binding, the ventricles were placed in ice-cold buffer and all subsequent procedures were carried out at 4° C. The tissue was homogenised in 20 volumes of TE buffer (10 mmole.litre^-1 Tris-HCl, 1 mmole.litre^-1 EDTA, 0.1 mmole.litre^-1 ascorbic acid, pH 7.4) with three 12-s pulses using a Polytron homogenizer (Kinematica, Model PT 3000, Switzerland). The homogenate was filtered with pressure through muslin and the filtrate centrifuged for 10 min at 1000 g to remove connective tissue, unbroken cells and cell debris. The supernatant was centrifuged again at 10,000 g for 12 min. This second supernatant was then centrifuged for 15 min at 30,000 g and the final pellet was suspended in a assay buffer (75 mM Tris HCl/25 mM MgCl2, pH 7.4).
(§2) Protein was determined by the method in Anal. Biochem. 72, 248, 1976 (by Bradford, M. M. et al.). This membrane preparation has been described in Biochem. Biophys. Acta. 541, 334, 1978 (by Ciaraldi, T. et al.). The binding assay of [^3 H]-DHA was carried out as described in Biochem. Biophys. Res. Commun. 60, 703, 1974 ( by Lefkowitz, R. J. et al.) with slight modifications. [^3 ]-DHA and ventricular membranes (200-300 μg) were incubated for 60 min at 25° C. with and without the addition of 1 μM alprenolol, in 75 mM Tris-HCI buffer comprising MgCl2 25 mM, to make a final volume of 250 μl. In competitive binding experiments, the competing agent was added directly to the incubation mixture. The incubation was terminated by addition of 1 ml of ice-cold assay buffer followed by immediate filtration through Whatman GF/C glass fiber filters supported on a 12-port filter manifold (Millipore). The filters were immediately washed three times with 5 ml of ice-cold assay buffer and dried in an oven at 60° C. for 2 hr prior to adding 5 ml of Triton-toluene based scintillation fluid.
[^3 H]-DHA trapped in the filters was counted in a Wallac LKB 1211 rackbeta liquid scintillation counter with an efficiency of 41%. In each experiment, non-specifically bound [^3 H]-DHA was determined by incubating membrane protein and [^3 H]-DHA with 1 μM alprenolol. Specific binding was thus obtained by deducing this value from the total binding of [^3 H]-DHA for each sample.
[^3 H]dihydroalprenolol([^3 H]DHA) binding curve with pig ventricular membranes. […]

Series [3] can be described thus: Blood pressure and heart rate responses to intravenous injection in anesthetized rats. In kind it is in vivo, pentobarbital-anesthetized normotensive Wistar rats. The protocol:
Measurement of blood pressure and heart rate
The method reported in Gen.
(§3) vasomolol (0.5, 1.0, 3.0 mg/kg)

Assay in series [4]: as above
The class given is in vivo, pentobarbital-anesthetized normotensive Wistar rats. Conditions: 0.1 mg/kg i.v.; mean ± SEM (n = 8).

Series [5] deals with phenylephrine-induced pressor response. Nature of the series: Inhibition of phenylephrine-induced pressor response during intravenous infusion. The class given is in vivo, reserpinized rats. Conditions: infusion 300 μg/kg/min; phenylephrine 10 μg/kg i.v.; data not shown. The protocol:
The method reported in Gen. Pharmacol. 24, 1425, 1993 (by inventor group),
phenylephrine (10 μg/klg, i.v.)

In another series the test system is blood and liver esterase. Conditions: background, Drugs 33, 392, 1987; cited from earlier work.
The next series concerns β-adrenergic receptor. Nature of the series: β-blockade and duration of action: inhibition of (-)isoproterenol-induced tachycardia during and after infusion. The class given is in vivo, pentobarbital-anesthetized rats. The protocol: Vasomolol (100 μg/kg/min) was infused consecutively into a femoral vein in pentobarbital-anesthetized rats. Each perfusion was maintained for 60 min. Before and during the infusion of vasomolol and esmolol, at 10-min intervals, bolus i.v. injections of (-) isoproterenol (0.5. μg/kg) were administered to assess the level of β-blockade. (-) lsoproterenol injections were also continued for 60 min. after termination of the highest dose of vasomolol and esmolol to assess the duration of β-blockade reported in J. Pharm. Exp. Ther. 237, 912, 1986 (by Quon, C. Y. et al.). The percentage of inhibition of the (-)isoproterenol-induced tachycardia parameter of β-blockade--was calculated during and after infusions of vasomolol.
isoproterenol (0.5 μg/kg)
as §3

Series [6] concerns the target T1, β-adrenoceptor, ventricular membranes (Sus scrofa, UniProt Q28998).
T1 construct: tissue local slaughterhouse; host or cells: pig heart ventricular membranes
Nature of the series: Competition for [3H]-DHA binding to ventricular membranes. The arrangement: species or system pig. As for the experimental part:
as §1, with “Res. 25, 764, 1991 (by Bjornerheim, R. et al.).” left out, “debris.” for “debris. The supernatant was centrifuged again at 10,000 g for 12 min. This second supernatant was then centrifuged for 15 min at 30,000 g and the final pellet was suspended in a assay buffer (75 mM Tris HCl/25 mM MgCl2, pH 7.4).”
as §2, with “This” for “Protein was determined by the method in Anal. Biochem. 72, 248, 1976 (by Bradford, M. M. et al.). This”, “541, 334, 1978 (by Ciaraldi, T. et al.).” left out, “60, 703, 1974 ( by Lefkowitz, R. J. et al.) with slight modifications.” left out
In each experiment, non-specifically bound [^3 H]-DHA was determined by incubating membrane protein and [^3 H]-DHA with 1 μM alprenolol. Specific binding was thus obtained by deducing this value from the total binding of [^3 H]-DHA for each sample.
All incubations were performed as described in the method section. Data shown are the means of three independent duplicate determinations.

Where [7] appears, read: 0.5 mg/kg i.v., mean ± SEM (n = 8).
Where [8] appears, read: 1.0 mg/kg i.v., mean ± SEM (n = 8).
Setting [9] is: 3.0 mg/kg i.v., mean ± SEM (n = 8).

T1 sequence (Q28998 whole entry): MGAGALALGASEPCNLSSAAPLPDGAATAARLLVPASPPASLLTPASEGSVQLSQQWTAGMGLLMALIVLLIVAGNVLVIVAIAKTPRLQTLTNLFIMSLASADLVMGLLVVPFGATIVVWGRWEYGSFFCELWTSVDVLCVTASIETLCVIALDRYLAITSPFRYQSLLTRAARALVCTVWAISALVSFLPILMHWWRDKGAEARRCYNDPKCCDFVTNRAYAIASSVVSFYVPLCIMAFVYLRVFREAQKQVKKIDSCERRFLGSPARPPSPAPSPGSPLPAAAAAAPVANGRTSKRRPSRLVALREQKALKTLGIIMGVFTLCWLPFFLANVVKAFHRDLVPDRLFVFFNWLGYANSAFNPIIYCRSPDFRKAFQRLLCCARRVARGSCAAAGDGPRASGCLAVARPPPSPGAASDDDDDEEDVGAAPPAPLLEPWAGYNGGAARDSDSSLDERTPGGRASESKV

For `CC(C)NCC(O)c1ccc(O)c(O)c1` (centres unmarked) [isoproterenol, reference compound], in series [1] (cumulative concentrations), the “intrinsic sympathomimetic activity: effect on heart rate and contractility” value was “produced concentration-dependent increases in heart rate and contractility”.

Usually Kd stands for a measure of binding affinity in units of concentration. For `CCCc1ccccc1OCC(O)CNC(C)C` (centres unmarked) [[^3 H]-DHA, [^3 H]dihydroalprenolol], the “maximum binding capacity (Bmax)” value in series [2] (25° C., mean±S.E.M., Scatchard) amounted to 120.3±6.0 fmol/mg protein. Moreover, the Kd in series [2] (25° C., mean±S.E.M., Scatchard, read-out: equilibrium dissociation constant (Kd)) is 8.1 ± 0.9 nM. Also, in series [2] (data not shown), the “duration of maintained binding equilibrium” value was “up to 90 min” and the “time to reach binding equilibrium” value is “approximately 20 min”.

Regarding `CC(C)NCC(O)COc1cccc2ccccc12` (centres unmarked) [Propranolol], the BP change in series [3] (0.1 mg/kg i.v., mean ± SEM (n = 8)) amounted to 3.9 ± 1.0 mm Hg; in series [3] (setting [7]), 7.0 ± 1.6 mm Hg; in series [3] (setting [8]), 9.5 ± 1.1 mm Hg. Also, the HR change in series [3] (setting [7]) was -50.6 ± 8.1 bpm; in series [3] (setting [8]), -65.0 ± 8.9 bpm; in series [4], -30.7 ± 3.8 bpm. In addition, in series [1], the “negative inotropic and chronotropic effects” value was “produced negative inotropic and chronotropic effects”.

A word on the IC50: it is the midpoint of a concentration-inhibition curve. Low values mean greater potency, high ones weaker potency. Take `COC(=O)CCc1ccc(OCC(O)CNC(C)C)cc1` (centres unmarked) [Esmolol]: the “inhibition of phenylephrine-induced pressor response” value in series [5] is given as “could not significantly inhibit”. The “metabolism by blood and liver esterase” value with blood and liver esterase was “rapidly metabolized by blood and liver esterase”. Besides, the BP change in series [3] (setting [7]) is -4.0 ± 0.8 mm Hg; in series [3] (setting [8]), -6.3 ± 1.3 mm Hg; in series [3] (setting [9]) it was -8.7 ± 0.9 mm Hg. Besides, the HR change is -25.7 ± 2.4 bpm in series [3] (setting [7]), -37.5 ± 3.6 bpm in series [3] (setting [8]) and -58.2 ± 4.7 bpm in series [3] (setting [9]). In addition, the bradycardia duration in series [3] (setting [7]) was 3.7 ± 0.6 min; in series [3] (setting [8]), 6.0 ± 1.3 min; in series [3] (setting [9]) it was 7.5 ± 1.1 min; in series [3] (i.v. injection), “less than 10 min”. Besides, the “onset of β-blockade to steady-state level” value in the series with β-adrenergic receptor (after initiating each infusion rate, isoproterenol 0.5 μg/kg) is given as not above 10 min. Also, the “time required for 50% recovery” value in the series on β-adrenergic receptor (after termination of infusion, mean±S.E.M.) stood at 9.5 ± 1.0 min. For the same molecule, in the series on β-adrenergic receptor (in words), the “disappearance of β-blockade after termination of infusion” value is “disappeared rapidly after the termination of infusion”. The “order of potency inhibiting [3H]-DHA binding” value in series [6] (in words) is on record as “(-) propranolol>>vasomolol=esmolol”. The IC50 in series [6] (mean±S.E.M.) worked out at 5000 ± 1300 nM.
